From patent publication US8609847B2, “Dihydroquinolinone derivatives” (Taisho Pharmaceutical Co., Ltd, priority 2009, dated 2013)

Target: T1, human H3 receptor (Homo sapiens, UniProt Q9Y5N1)
T1 construct: purchased Perkin Elmer ES-392-M400UA; host or cells: CHO-K1 cells (recombinant expression), membrane preparation
Assay: H3 Receptor Binding Test
Conditions: 50% inhibition of R(−)-α-methyl[3H]histamine (1 nM) binding; membrane preparation of human H3 receptor-expressing CHO-K1 cells
Experimental: A membrane preparation of human H3 receptor-expressing CHO-K1 cells (Perkin Elmer, ES-392-M400UA, 15 μg protein/200 μl), R(−)-α-methyl[^3H]histamine (Amersham, TRK-1017, specific activity: 1.74 TBq/mmol, 1 nM) and a test drug were reacted at room temperature for 1 hour. After completion of the reaction, the reaction mixture was subjected to suction filtration through a 0.3% polyethyleneimine-treated glass filter (GF/C). The glass filter was washed five times with 50 mM Tris-HCl washing solution (pH 7.4) containing 5 mM EDTA. After washing, the glass filter was dried and a scintillator was added thereto, followed by measurement of radioactivity on the filter using a liquid scintillation counter.
Binding of R(−)-α-methyl[^3H]histamine in the presence of 10 μM R(−)-α-methylhistamine was defined as non-specific binding, and the difference between total binding and non-specific binding of R(−)-α-methyl[^3H]histamine was defined as specific binding of R(−)-α-methyl[^3H]histamine. A fixed concentration (1 nM) of R(−)-α-methyl[^3H]histamine was reacted under the above conditions with each test drug at various concentrations to obtain an inhibition curve. The inhibition curve was used to determine the concentration (IC50) of each test drug required for 50% inhibition of R(−)-α-methyl[^3H]histamine binding.

T1 sequence (Q9Y5N1 whole entry): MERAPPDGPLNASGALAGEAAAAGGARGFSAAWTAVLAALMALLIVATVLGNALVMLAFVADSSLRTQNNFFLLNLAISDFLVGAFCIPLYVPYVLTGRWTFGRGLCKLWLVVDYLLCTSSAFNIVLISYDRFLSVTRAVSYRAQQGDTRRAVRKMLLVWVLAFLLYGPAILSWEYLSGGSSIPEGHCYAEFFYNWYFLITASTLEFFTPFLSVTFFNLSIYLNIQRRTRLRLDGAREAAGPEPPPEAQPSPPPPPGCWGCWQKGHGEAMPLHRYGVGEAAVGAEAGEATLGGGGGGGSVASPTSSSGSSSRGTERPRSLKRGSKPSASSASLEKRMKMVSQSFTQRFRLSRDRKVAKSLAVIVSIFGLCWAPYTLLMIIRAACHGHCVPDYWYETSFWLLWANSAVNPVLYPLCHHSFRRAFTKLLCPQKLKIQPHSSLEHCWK

SMILES	IC50 [nM]
C[C@@H]1CCCN1CCCOc1ccc2c(c1)CCC(=O)N2c1cncc2cccnc12 [Compound No. 40, 6-{3-[(2R)-2-methylpyrrolidin-1-yl]propoxy}-1-(1,6-naphthylizin-8-yl)-3,4-dihydroquinolin-2(1H)-one]	20
O=C1CCc2cc(OCCCN3CCCC3)ccc2N1c1ccc(F)cc1 [Compound No. 78, 1-(4-fluorophenyl)-6-[3-(pyrrolidin-1-yl)propoxy]-3,4-dihydroquinolin-2(1H)-one]	13
C[C@@H]1CCCN1CCCOc1ccc2c(c1)CCC(=O)N2c1cccnc1 [Compound No. 35, 6-{3-[(2R)-2-methylpyrrolidin-1-yl]propoxy}-1-(pyridin-3-yl)-3,4-dihydroquinolin-2(1H)-one]	2.2
O=C1CCc2cc(OCCCN3CCCC3)ccc2N1c1cc(F)cc(F)c1 [Compound No. 80, 1-(3,5-difluorophenyl)-6-[3-(pyrrolidin-1-yl)propoxy]-3,4-dihydroquinolin-2(1H)-one]	22
C[C@@H]1CCCN1CCCOc1ccc2c(c1)CCC(=O)N2c1ccc(OC(F)(F)F)cc1 [Compound No. 9, 6-{3-[(2R)-2-methylpyrrolidin-1-yl]propoxy}-1-[4-(trifluoromethoxy)phenyl]-3,4-dihydroquinolin-2(1H)-one]	3.5
COc1ccc(N2C(=O)CCc3cc(OC4CCN(C(C)(C)C)CC4)ccc32)cn1 [Compound No. 65, 6-[(1-tert-butylpiperidin-4-yl)oxy]-1-(6-methoxypyridin-3-yl)-3,4-dihydroquinolin-2(1H)-one]	12
C[C@@H]1CCCN1CCCOc1cc(Cl)c2c(c1)CCC(=O)N2c1ccc(F)cc1 [Compound No. 85, 8-chloro-1-(4-fluorophenyl)-6-{3-[(2R)-2-methylpyrrolidin-1-yl]propoxy}-3,4-dihydroquinolin-2(1H)-one]	11
C[C@@H]1CCCN1CCCOc1ccc2c(c1)CCC(=O)N2c1cn(C(=O)OC(C)(C)C)c2ccccc12 [Compound No. 42, tert-butyl 3-[6-{3-[(2R)-2-methylpyrrolidin-1-yl]propoxy}-2-oxo-3,4-dihydroquinolin-1(2H)-yl]-1H-indole-1-carboxylate]	34
COc1ccc2ncc(N3C(=O)CCc4cc(OCCCN5CCC[C@H]5C)ccc43)cc2c1 [Compound No. 55, 6′-methoxy-6-{3-[(2R)-2-methylpyrrolidin-1-yl]propoxy}-3,4-dihydro-2H-1,3′-biquinolin-2-one]	5.4
C[C@@H]1CCCN1CCCOc1ccc2c(c1)CCC(=O)N2c1ccccn1 [Compound No. 34, 6-{3-[(2R)-2-methylpyrrolidin-1-yl]propoxy}-1-(pyridin-2-yl)-3,4-dihydroquinolin-2(1H)-one]	8.1
N#Cc1cccc(N2C(=O)CCc3cc(OC4CCN(C5CCC5)CC4)ccc32)c1 [Compound No. 74, 3-{6-[(1-cyclobutylpiperidin-4-yl)oxy]-2-oxo-3,4-dihydroquinolin-1(2H)-yl}benzonitrile]	1.3
COc1cccc(N2C(=O)CCc3cc(OCCCN4CCC[C@H]4C)ccc32)c1 [Compound No. 22, 1-(3-methoxyphenyl)-6-{3-[(2R)-2-methylpyrrolidin-1-yl]propoxy}-3,4-dihydroquinolin-2(1H)-one]	1.6
C[C@@H]1CCCN1CCCOc1ccc2c(c1)CCC(=O)N2c1cccc(F)c1 [Compound No. 24, 1-(3-fluorophenyl)-6-{3-[(2R)-2-methylpyrrolidin-1-yl]propoxy}-3,4-dihydroquinolin-2(1H)-one]	0.92
C[C@@H]1CCCN1CCCOc1ccc2c(c1)CCC(=O)N2c1ccc(F)cc1F [Compound No. 29, 1-(2,4-difluorophenyl)-6-{3-[(2R)-2-methylpyrrolidin-1-yl]propoxy}-3,4-dihydroquinolin-2(1H)-one]	1
CC(C)(C)N1CCC(Oc2ccc3c(c2)CCC(=O)N3c2ccccc2)CC1 [Compound No. 61, 6-[(1-tert-butylpiperidin-4-yl)oxy]-1-phenyl-3,4-dihydroquinolin-2(1H)-one]	2.4
COc1ccccc1N1C(=O)CCc2cc(OCCCN3CCC[C@H]3C)ccc21 [Compound No. 23, 1-(2-methoxyphenyl)-6-{3-[(2R)-2-methylpyrrolidin-1-yl]propoxy}-3,4-dihydroquinolin-2(1H)-one]	1.2

Further molecules by falling IC50, results first:

IC50 [nM]	SMILES
17	O=C1CCc2cc(OCCCN3CCCC3)ccc2N1c1cccc(F)c1 [Compound No. 79, 1-(3-fluorophenyl)-6-[3-(pyrrolidin-1-yl)propoxy]-3,4-dihydroquinolin-2(1H)-one]
12	Cc1cc(OCCCN2CCC[C@H]2C)cc2c1N(c1ccc(F)cc1)C(=O)CC2 [Compound No. 86, 1-(4-fluorophenyl)-8-methyl-6-{3-[(2R)-2-methylpyrrolidin-1-yl]propoxy}-3,4-dihydroquinolin-2(1H)-one]
9.1	O=C1CCc2cc(OCCCN3CCCCC3)ccc2N1c1ccc(F)cc1 [Compound No. 82, 1-(4-fluorophenyl)-6-[3-(piperidin-1-yl)propoxy]-3,4-dihydroquinolin-2(1H)-one]
8.5	CC(C)(C)N1CCC(Oc2ccc3c(c2)CCC(=O)N3c2cnc3ccccc3c2)CC1 [Compound No. 59, 6-[(1-tert-butylpiperidin-4-yl)oxy]-3,4-dihydro-2H-1,3′-biquinolin-2-one]
6.1	CC(C)(C)N1CCC(Oc2ccc3c(c2)CCC(=O)N3c2cccc(C#N)c2)CC1 [Compound No. 63, 3-{6-[(1-tert-butylpiperidin-4-yl)oxy]-2-oxo-3,4-dihydroquinolin-1(2H)-yl}benzonitrile]
5.8	C[C@@H]1CCCN1CCCOc1ccc2c(c1)CCC(=O)N2c1cncnc1 [Compound No. 36, 6-{3-[(2R)-2-methylpyrrolidin-1-yl]propoxy}-1-(pyrimidin-5-yl)-3,4-dihydroquinolin-2(1H)-one]
5.7	C[C@@H]1CCCN1CCCOc1ccc2c(c1)CCC(=O)N2c1cncc(C#N)c1 [Compound No. 50, 5-[6-{3-[(2R)-2-methylpyrrolidin-1-yl]propoxy}-2-oxo-3,4-dihydroquinolin-1(2H)-yl]pyridine-3-carbonitrile]
4.9	CC(C)(C)N1CCC(Oc2ccc3c(c2)CCC(=O)N3c2ccc(C#N)cc2)CC1 [Compound No. 62, 4-{6-[(1-tert-butylpiperidin-4-yl)oxy]-2-oxo-3,4-dihydroquinolin-1(2H)-yl}benzonitrile]
4	C[C@@H]1CCCN1CCCOc1ccc2c(c1)CCC(=O)N2c1ccc(-c2cnco2)cc1 [Compound No. 19, 6-{3-[(2R)-2-methylpyrrolidin-1-yl]propoxy}-1-[4-(1,3-oxazol-5-yl)phenyl]-3,4-dihydroquinolin-2(1H)-one]
2.9	COCc1ccc(N2C(=O)CCc3cc(OCCCN4CCC[C@H]4C)ccc32)cc1 [Compound No. 11, 1-[4-(methoxymethyl)phenyl]-6-{3-[(2R)-2-methylpyrrolidin-1-yl]propoxy}-3,4-dihydroquinolin-2(1H)-one]
2.4	COc1cc(F)cc(N2C(=O)CCc3cc(OCCCN4CCC[C@H]4C)ccc32)c1 [Compound No. 26, 1-(3-fluoro-5-methoxyphenyl)-6-{3-[(2R)-2-methylpyrrolidin-1-yl]propoxy}-3,4-dihydroquinolin-2(1H)-one]
2.1	C[C@@H]1CCCN1CCCOc1ccc2c(c1)CCC(=O)N2c1cc(F)cc(F)c1 [Compound No. 27, 1-(3,5-difluorophenyl)-6-{3-[(2R)-2-methylpyrrolidin-1-yl]propoxy}-3,4-dihydroquinolin-2(1H)-one]
2	COc1ccc(N2C(=O)CCc3cc(OCCCN4CCC[C@H]4C)ccc32)c(OC)c1 [Compound No. 25, 1-(2,4-dimethoxyphenyl)-6-{3-[(2R)-2-methylpyrrolidin-1-yl]propoxy}-3,4-dihydroquinolin-2(1H)-one]
1.9	C[C@@H]1CCCN1CCCOc1ccc2c(c1)CCC(=O)N2c1cc(Cl)cc(C#N)c1 [Compound No. 31, 3-chloro-5-[6-{3-[(2R)-2-methylpyrrolidin-1-yl]propoxy}-2-oxo-3,4-dihydroquinolin-1(2H)-yl]benzonitrile]
1.3	C[C@@H]1CCCN1CCCOc1ccc2c(c1)CCC(=O)N2c1ccc2[nH]ccc2c1 [Compound No. 56, 1-(1H-indol-5-yl)-6-{3-[(2R)-2-methylpyrrolidin-1-yl]propoxy}-3,4-dihydroquinolin-2(1H)-one]
1	C[C@@H]1CCCN1CCCOc1ccc2c(c1)CCC(=O)N2c1ccc(F)c(F)c1 [Compound No. 28, 1-(3,4-difluorophenyl)-6-{3-[(2R)-2-methylpyrrolidin-1-yl]propoxy}-3,4-dihydroquinolin-2(1H)-one]
0.79	C[C@@H]1CCCN1CCCOc1ccc2c(c1)CCC(=O)N2c1ccccc1 [Compound No. 2, 6-{3-[(2R)-2-methylpyrrolidin-1-yl]propoxy}-1-phenyl-3,4-dihydroquinolin-2(1H)-one]
0.72	O=C1CCc2cc(OC3CCN(C4CCC4)CC3)ccc2N1c1cc(F)cc(F)c1 [Compound No. 68, 6-[(1-cyclobutylpiperidin-4-yl)oxy]-1-(3,5-difluorophenyl)-3,4-dihydroquinolin-2(1H)-one]
